Measurements reported in patent US12304899B2, “Factor XI activation inhibitors” (Merck Sharp & Dohme LLC, priority 2019, dated 2025).

Biological target: T1, Human coagulation factor (F)XI (Homo sapiens, UniProt P03951)
T1 construct: purchased Haematologic Technologies Inc. (FXI); Enzyme Research Laboratories (FXIIa) HCXI-150 (FXI); HFXIIa (FXIIa)
Assay: Inhibition of FXIIa mediated activation of FXI (activation of human Factor XI to XIa by human Factor α-XIIa)
Assay type: biochemical
Conditions: human FXI pre-incubated with compound 30 min at 22° C., activation by human FXIIa 60 min, z-GPR-AFC substrate fluorescence, 4 parameter logistic fit; read-out: Inhibition of FXIIa meditated activation of FXI
Method: Inhibition of FXIIa Mediated Activation of FXI
Activation of Human Factor XI to XIa by Human Factor α-XIIa
The assay was performed in 50 mM HEPES, 150 mM NaCl, 5 mM CaCl2, 0.1% PEG-8000, pH 7.4 buffer in black, flat-bottom, polystyrene microplates (Corning, Cat #3573). Serial dilutions (10-point, 3.333-fold) of the test compounds delivered as 10 mM DMSO stocks were prepared in the Labcyte Echo-qualified PP 384 well microplates (Labcyte, Cat #P-05525). Human coagulation factor (F)XI (Haematologic Technologies Inc., Cat #HCXI-150, concentration 46 nM, 19.5 uL) was pre-incubated with 0.5 uL of the test compounds for 30 min at 22° C. The activation was initiated by addition of 10 uL of human coagulation factor (F)XIIa (Enzyme Research Laboratories, Cat #HFXIIa, concentration 30 nM) and the reaction proceeded for 60 min at 22° C., after which it was quenched by addition of a selective inhibitor of FXIIa (Compound 54 in International Patent Publication WO2018093695) concentration 600 uM in DMSO, 1 uL). 10 min after the quench, 29 uL of z-GPR-AFC substrate (Sigma, Cat #C0980-10 MG, concentration 200 uM) was added into each well and the detection reaction proceeded for 60 min at 22° C. Fluorescence at 405/510 nm was measured in end-point mode using an Envision plate-reader (Perkin Elmer). IDBS Activity Base XE (ABase) analysis using 4 parameter logistic fit was performed to determine Minimum, Maximum, EC50, and Slope Factor for each compound.

T1 sequence (P03951 19-625): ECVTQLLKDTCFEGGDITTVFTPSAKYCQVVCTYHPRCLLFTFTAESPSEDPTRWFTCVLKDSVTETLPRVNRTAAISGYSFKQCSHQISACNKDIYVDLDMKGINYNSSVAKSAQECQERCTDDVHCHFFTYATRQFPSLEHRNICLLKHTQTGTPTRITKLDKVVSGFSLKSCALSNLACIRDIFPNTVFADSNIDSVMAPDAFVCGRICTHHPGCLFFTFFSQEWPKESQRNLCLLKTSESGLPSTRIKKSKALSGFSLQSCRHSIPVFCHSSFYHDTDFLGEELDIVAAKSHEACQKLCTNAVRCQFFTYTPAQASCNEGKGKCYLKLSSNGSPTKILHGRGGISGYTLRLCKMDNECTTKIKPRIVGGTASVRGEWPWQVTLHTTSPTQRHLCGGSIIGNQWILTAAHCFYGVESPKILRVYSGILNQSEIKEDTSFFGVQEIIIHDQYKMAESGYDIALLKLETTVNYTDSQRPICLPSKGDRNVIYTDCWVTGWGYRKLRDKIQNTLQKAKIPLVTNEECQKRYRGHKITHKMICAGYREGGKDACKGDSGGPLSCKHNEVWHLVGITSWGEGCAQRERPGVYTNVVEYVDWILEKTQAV

`N#CC1(c2ccccc2)CCN(C(=O)c2cc(C(=O)N3CCCCC3)c3cc(OCc4nc5ccccc5s4)ccc3n2)CC1` [Example 49, 1-(6-(benzo[d]thiazol-2-yl-methoxy)-4-(piperidine-1-carbonyl)quinoline-2-carbonyl)-4-phenylpiperi-dine-4-carbonitrile] and `N#CC1(c2ccccn2)CCN(C(=O)c2cc(C(=O)N3CCCCC3)c3cc(OCc4nc5ccccc5s4)ccc3n2)CC1` [Example 57, 1-(6-(benzo[d]thiazol-2-yl-methoxy)-4-(piperidine-1-carbonyl)quinoline-2-car-bonyl)-4-(pyridin-2-yl)-piperidine-4-carbonitrile] are within 1.5-fold of each other in EC50: 0.015 µM for the first, 0.0218 µM for the second.

`N#Cc1cc(Cl)ccc1COc1ccc2nc(C(=O)N3CCC(C#N)(c4ccccc4)CC3)cc(C(=O)N3CCCCC3)c2c1` [Example 27, 1-(6-((4-chloro-2-cyanobenzyl)oxy)-4-(piperidine-1l-carbonyl)quinoline-2-carbonyl)-4-phenylpiperidine-4-carbonitrile] and `N#CC1(c2ccccc2)CCN(C(=O)c2cc(C(=O)N3CCCCC3)c3cc(OCc4ccc(F)cc4F)ccc3n2)CC1` [Example 43, 1-(6-((2,4-difluorobenzyl)-oxy)-4-(piperidine-1-carbon-yl)quinoline-2-carbonyl)-4-phenylpiperidine-4-carbonitrile] are within 1.5-fold of each other in EC50: 0.039 µM for the first, 0.0385 µM for the second.

`N#CC1(c2ccccc2)CCN(C(=O)c2cc(C(=O)N3CCCCC3)c3cc(OCc4cccc([N+](=O)[O-])c4)ccc3n2)CC1` [Example 29, 1-(6-((3-nitrobenzyl)oxy)-4-(piperidine-1-carbonyl)quin-oline-2-carbonyl)-4-phenyl-piperidine-4-carbonitrile] and `N#Cc1cccc(COc2ccc3nc(C(=O)N4CCC(C#N)(c5ccccc5)CC4)cc(C(=O)N4CCCCC4)c3c2)c1` [Example 32, 1-(6-((3-cyanobenzyl)oxy)-4-(piperidine-1-carbonyl)quin-oline-2-carbonyl)-4-phenyl-piperidine-4-carbonitrile] are within 1.5-fold of each other in EC50: 0.0397 µM for the first, 0.0469 µM for the second.

Compared with `N#CC1(c2ccccc2)CCN(C(=O)c2cc(C(=O)N3CCCCC3)c3cc(OCc4nc5ccccc5s4)ccc3n2)CC1` [Example 60, 1-(6-(benzo[d]thiazol-2-yl-methoxy)-4-(piperidine-1-carbonyl)quinoline-2-car-onyl)-4-phenylpiperidine-4-carbonitrile], `N#CC1(c2ccccc2)CCN(C(=O)c2cc(C(=O)N3CCCCC3)c3cc(OCc4cn5ccccc5n4)ccc3n2)CC1` [Example 47, 1-(6-(imidazo[1,2-a]pyridin-2-ylmethoxy)-4-(piperidine-1-carbonyl)quinoline-2-carbonyl)-4-phenylpiperi-dine-4-carbonitrile] is 2.7-fold lower in EC50: 0.0377 µM for the first, 0.0138 µM for the second.

`N#CC1(c2ccccc2)CCN(C(=O)c2cc(C(=O)N3CCCCC3)c3cc(OCCCn4cccc4)ccc3n2)CC1` [Example 46, 1-(6-(3-(1H-pyrrol-1-yl)-propoxy)-4-(piperidine-1-car-bonyl)quinoline-2-carbonyl)-4-phenylpiperidine-4-carbonitrile] and `COc1ccc(COc2ccc3nc(C(=O)N4CCC(C#N)(c5ccccc5)CC4)cc(C(=O)N4CCCCC4)c3c2)c(Cl)c1` [Example 40, 1-(6-((2-chloro-4-methoxy-benzyl)oxy)-4-(piperidine-1-carbonyl)quinoline-2-carbon-yl)-4-phenylpiperidine-4-carbonitrile] are within 1.5-fold of each other in EC50: 0.0337 µM for the first, 0.0499 µM for the second.

First: N#Cc1ccc(COc2ccc3nc(C(=O)N4CCC(n5cccn5)CC4)cc(C(=O)N4CCCCC4)c3c2)c(F)c1 [Example 16, 4-(((2-(4-(1H-pyrazol-1-yl)-piperidine-1-carbonyl)-4-(piperidine-1-carbonyl)-quinolin-6-yl)oxy)methyl)-3-fluorobenzonitrile]
Second: N#Cc1ccc(COc2ccc3nc(C(=O)N4CCC(n5cccn5)CC4)cc(C(=O)N4CCCCC4)c3c2)cc1F [Example 13, 4-(((2-(4-(1H-pyrazol-1-yl)-piperidine-1-carbonyl)-4-(piperidine-1-carbonyl)-quinolin-6-yl)oxy)methyl)-2-fluorobenzonitrile]
The EC50 of the first is 1.6-fold higher: 0.0329 µM for the first, 0.02 µM for the second.

`O=C(c1cc(C(=O)N2CCCCC2)c2cc(OCc3ccc(Cl)cc3)ccc2n1)N1CCC(n2cccn2)CC1` [Example 21, (4-(1H-pyrazol-1-yl)piperidin-1-yl)(6-((4-chlorobenzyl)oxy)-4-(piperidine-1-carbonyl)quin-olin-2-yl)methanone] and `O=C1OCc2ccc(COc3ccc4nc(C(=O)N5CCC(n6cccn6)CC5)cc(C(=O)N5CCCCC5)c4c3)cc21` [Example 20, 6-(((2-(4-(1H-pyrazol-1-yl)-piperidine-1-carbonyl)-4-(piperidine-1-carbonyl)-quinolin-6-yl)oxy)methyl)-isobenzofuran-1(3H)-one] are within 1.5-fold of each other in EC50: 0.0343 µM for the first, 0.0358 µM for the second.

Compared with `O=C(c1cc(C(=O)N2CCCC(F)(F)C2)c2cc(OCc3nc4ccccc4s3)ccc2n1)N1CCC(n2cccn2)CC1` [Example 53, (4-(1H-pyrazol-1-yl)piperidin-1-yl)(6-(benzo[d]thiazol-2-ylmethoxy)-4-(3,3-difluoro-piperidine-1-carbonyl)quin-olin-2-yl)methanone], `Cn1c(COc2ccc3nc(C(=O)N4CCC(n5cccn5)CC4)cc(C(=O)N4CCCCC4)c3c2)nc2ccccc21` [Example 24, (4-(1H-pyrazol-1-yl)piperidin-1-yl)(6-((1-methyl-1H-benzo-[d]imidazol-2-yl)methoxy)-4-(piperidine-1-carbonyl)-quinolin-2-yl)methanone] is 2.2-fold lower in EC50: 0.0626 µM for the first, 0.0289 µM for the second.

Going from `Cc1c(COc2ccc3nc(C(=O)N4CCC(C#N)(n5cccn5)CC4)cc(C(=O)N4CCCCC4)c3c2)ccc2c1COC2=O` [Example 1, 1-(6-((4-methyl-1-oxo-1,3-dihydroisobenzofuran-5-yl)methoxy)-4-(piperidine-1-carbonyl)quinoline-2-carbonyl)-4-(1H-pyrazol-1-yl)piperidine-4-carbonitrile] to `Cc1c(COc2ccc3nc(C(=O)N4CCC(C)(O)C4)cc(C(=O)N4CCCCC4)c3c2)ccc2c1COC2=O` (single isomer, unassigned) [Example 5b, 5-(((2-(3-hydroxy-3-methylpyrrolidine-1-carbonyl)-4-(piperidine-1-carbonyl)quinolin-6-yl)oxy)methyl)-4-methylisobenzofuran-1(3H)-one], the EC50 rises from 0.0218 µM to 0.0388 µM (1.8-fold).

First: O=C(c1cc(C(=O)N2CCCCC2)c2cc(OCc3nc4ccccc4s3)ccc2n1)N1CCC(c2cc[nH]n2)CC1 [Example 63, (4-(1H-pyrazol-3-yl)piperi-din-1-yl)(6-(benzo[d]-thiazol-2-ylmethoxy)-4-(piperidine-1-carbonyl)-quinolin-2-yl)methanone]
Second: O=C(c1cc(C(=O)N2CCCCC2)c2cc(OCc3nc4ccccc4s3)ccc2n1)N1CCC2(CC1)CC2(F)F [Example 62, (6-(benzo[d]thiazol-2-yl-methoxy)-2-(1,1-difluoro-6-azaspiro[2.5]octane-6-carbonyl)quinolin-4-yl)-(piperidin-1-yl)methanone]
The EC50 of the first is 1.6-fold higher: 0.031 µM for the first, 0.0191 µM for the second. The second is the more potent here.

`N#CC1(c2ccccc2)CCN(C(=O)c2cc(C(=O)N3CCCCC3)c3cc(OCc4ccc(F)cc4[N+](=O)[O-])ccc3n2)CC1` [Example 28, 1-(6-((4-fluoro-2-nitro-benzyl)oxy)-4-(piperidine-1-carbonyl)quinoline-2-carbon-yl)-4-phenylpiperidine-4-carbonitrile] and `N#CC1(n2cccn2)CCN(C(=O)c2cc(C(=O)N3CCCCC3)c3cc(OCc4nc5ccccc5s4)ccc3n2)CC1` [Example 58, 1-(6-(benzo[d]thiazol-2-ylmethoxy)-4-(piperidine-1-carbonyl)quinoline-2-carbonyl)-4-(1H-pyrazol-1-yl)piperidine-4-carbonitrile] are within 1.5-fold of each other in EC50: 0.0389 µM for the first, 0.0337 µM for the second.

First: N#CC1(n2cccn2)CCN(C(=O)c2cc(C(=O)N3CCCCC3)c3cc(OCc4ccc5snnc5c4)ccc3n2)CC1 [Example 76, 1-(6-(benzo[d][1,2,3]thiadiazol-5-ylmethoxy)-4-(piperidine-1-carbonyl)quinoline-2-carbonyl)-4-(1H-pyrazol-1-yl)piperidine-4-carbonitrile]
Second: N#CC1(n2cccn2)CCN(C(=O)c2cc(C(=O)N3CCCCC3)c3cc(OCc4ncc(C(F)(F)F)cc4Cl)ccc3n2)CC1 [Example 2, 1-(6-((3-chloro-5-(trifluoro-methyl)pyridin-2-yl)meth-oxy)-4-(piperidine-1-carbon-yl)quinoline-2-carbonyl)-4-(1H-pyrazol-1-yl)piperidine-4-carbonitrile]
The EC50 of the first is 3.2-fold lower: 0.0102 µM for the first, 0.0322 µM for the second. The first is the more potent here.

`O=C(c1cc(C(=O)N2CCCCC2)c2cc(OCc3cn4c(F)cccc4n3)ccc2n1)N1CCC(n2cccn2)CC1` [Example 11, (4-(1H-pyrazol-1-yl)piperidin-1-yl)(6-((5-fluoroimidazo[1,2-a]pyridin-2-yl)methoxy)-4-(piperidine-1-carbonyl)-quinolin-2-yl)methanone] was tested, and the EC50 was 0.0351 µM.
